Results taken from patent US20240247015A1, “PHOSPHORUS DERIVATIVES AS NOVEL SOS1 INHIBITORS” (BAYER AKTIENGESELLSCHAFT, priority 2021, published 2024).

Biological target: interaction of human SOS1 (SOS1) with human K-RasG12C (Homo sapiens (Human), UniProt Q07889)
Assay: Biochemical assay: hK-RasG12C interaction assay with hSOS1 (HTRF)
Assay type: binding
Conditions: GST-hK-RasG12C with His-hSOS1, 60 min incubation at 20° C., mean, read-out: K-RasG12C - SOS interaction assay IC50 (mean)
How it was run: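 Compounds, duplicates at 11 concentrations from 0.073 nM to 20 µM, were preincubated 2 min with 10 nM GST-hK-RasG12C, then 20 nM His-hSOS1 was added, all at 20 °C. After 60 min, 665/620 nm HTRF ratio normalized to DMSO and SOS1-free controls; IC50 by 4-parameter fit.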

Sequence of interaction of human SOS1 (SOS1) with human K-RasG12C (Q07889 564-1049 limits assumed): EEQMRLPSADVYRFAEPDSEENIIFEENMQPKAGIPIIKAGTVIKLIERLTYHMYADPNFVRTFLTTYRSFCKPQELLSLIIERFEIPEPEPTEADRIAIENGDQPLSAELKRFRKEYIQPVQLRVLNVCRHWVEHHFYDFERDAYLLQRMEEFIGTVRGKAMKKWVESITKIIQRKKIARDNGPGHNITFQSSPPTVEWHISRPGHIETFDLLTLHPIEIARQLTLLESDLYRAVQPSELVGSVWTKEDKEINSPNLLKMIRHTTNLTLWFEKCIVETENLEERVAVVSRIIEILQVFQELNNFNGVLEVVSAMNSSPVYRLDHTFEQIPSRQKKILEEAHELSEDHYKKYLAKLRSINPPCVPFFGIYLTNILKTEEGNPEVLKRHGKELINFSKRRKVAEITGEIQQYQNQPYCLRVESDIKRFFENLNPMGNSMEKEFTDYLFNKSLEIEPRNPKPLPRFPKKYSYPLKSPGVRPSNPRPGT

| IC50 [nM] | SMILES |
| --- | --- |
| 4.1 | CC(=O)N1CCP(=O)(c2cc3c(N[C@H](C)c4cccc(C(F)(F)C(C)(C)O)c4F)nc(C)nc3cn2)CC1 [Example 193] |
| 12.1 | CC(=O)N1CCP(=O)(c2cc3c(N[C@H](C)c4cccc(C(F)(F)F)c4C)nc(C(F)(F)F)nc3cn2)CC1 [Example 194] |
| 6.56 | CC(=O)N1CCP(=O)(c2cc3c(N[C@H](C)c4cccc(C(F)(F)F)c4C)nc(C(F)F)nc3cn2)CC1 [Example 195] |
| 2.38 | CC(=O)N1CCP(=O)(c2cc3c(N[C@H](C)c4cccc(C(F)(F)F)c4C)nc(Cl)nc3cn2)CC1 [Example 196] |
| 7.4 | CC(=O)N1CCP(=O)(c2ccc3nc(C)nc(N[C@H](C)c4cccc(C(F)(F)F)c4C)c3c2)CC1 [Example 197] |
| 4.61 | CC(=O)NCC(F)(F)c1cccc([C@@H](C)Nc2nc(C)nc3cnc(P4(=O)CCN(C(C)=O)CC4)cc23)c1F [Example 199] |
| 3.95 | CC(=O)N1CCP(=O)(c2cc3c(N[C@H](C)c4cccc(C(F)(F)CN(C)S(C)(=O)=O)c4F)nc(C)nc3cn2)CC1 [Example 200] |
| 5.81 | CC(=O)N(C)CC(F)(F)c1cccc([C@@H](C)Nc2nc(C)nc3cnc(P4(=O)CCN(C(C)=O)CC4)cc23)c1F [Example 201] |
| 3.89 | CC(=O)N1CCP(=O)(c2cc3c(N[C@H](C)c4cccc(C(F)(F)CN(C(C)=O)C5CC5)c4F)nc(C)nc3cn2)CC1 [Example 202] |
| 5.65 | Cc1nc(N[C@H](C)c2cccc(C(F)(F)F)c2C)c2cc(P3(=O)CCN(C(=O)C(F)F)CC3)ncc2n1 [Example 203] |
| 5.96 | Cc1nc(N[C@H](C)c2cccc(C(F)(F)F)c2Cl)c2cc(P3(=O)CCN(C(=O)C(F)F)CC3)ncc2n1 [Example 204] |
| 9.64 | Cc1nc(N[C@H](C)c2cccc(C(F)(F)F)c2)c2cc(P3(=O)CCN(C(=O)C(F)F)CC3)ncc2n1 [Example 205] |
| 3.77 | Cc1nc(N[C@H](C)c2cccc(C(F)F)c2F)c2cc(P3(=O)CCN(C(=O)C(F)F)CC3)ncc2n1 [Example 206] |
| 6.84 | Cc1nc(N[C@H](C)c2cccc(C(F)(F)F)c2C)c2cc(P3(=O)CCN(C(=O)C(F)F)CC3)ccc2n1 [Example 207] |
